These results are taken from patent US20120177797A1, “TASTE ENHANCING AGENT” (J-OIL MILLS, INC., priority 2009, published 2012).

Assay type in all cases: in vivo
Experiment [1] can be described thus: Sensory evaluation, intensity of umami in aqueous MSG solution. The following applies: additive-free = 3.0. The method, then:
(§1) All sensory evaluation of taste was performed by individuals wearing a nose clip. The evaluation was performed by groups of three individuals, and the scores were averaged.
(§2) To a 0.2% aqueous sodium glutamate (MSG) solution (=umami), a 0.8% aqueous salt (NaCl) solution (=saltiness) and a 2% aqueous sucrose solution (=sweetness) were added 10 ppm linear aliphatic aldehydes having 3-12 carbon atoms shown in Table 1, respectively. Sensory evaluation was performed in which intensity of taste sensed when each of the aqueous solutions is introduced into the mouth is defined as “Intensity of umami” for the aqueous MSG solution, “Intensity of saltiness” for the aqueous NaCl solution and “Intensity of sweetness” for the aqueous sucrose solution. The score of aldehyde-free taste intensity was set to 3.0, and taste intensity upon addition of aldehyde was evaluated as follows. The results are shown in Table 1. • 1.0: Much weaker • 2.0: Weaker • 3.0: Similar • 4.0: Stronger • 5.0: Much Stronger
(§3) To a 0.2% aqueous sodium glutamate (MSG) solution (=umami), a 0.8% aqueous salt (NaCl) solution (=saltiness), a 2% aqueous sucrose solution (=sweetness) were added 10 ppm linear aliphatic alcohols having 2-11 carbon atoms, respectively. Sensory evaluation was performed in which intensity of taste sensed when each of the aqueous solutions is introduced into the mouth is defined as “Intensity of umami” for the aqueous MSG solution, “Intensity of saltiness” for the aqueous NaCl solution and “Intensity of sweetness” for the aqueous sucrose solution. The score of alcohol-free taste intensity was set to 3.0, and taste intensity upon addition was evaluated as follows. The results are shown in Table 3. • 1.0: Much weaker • 2.0: Weaker • 3.0: Similar • 4.0: Stronger • 5.0: Much stronger
(§4) To a 0.2% aqueous sodium glutamate (MSG) solution (=umami), a 0.8% aqueous salt (NaCl) solution (=saltiness), a 2% aqueous sucrose solution (=sweetness) were added 1 ppm n-hexanal and 1ppm 1-octene-3-ol each, respectively. Sensory evaluation was performed in which the intensity of taste sensed when each of the aqueous solutions is introduced into the mouth is defined as “Intensity of umami” for the aqueous MSG solution, “Intensity of saltiness” for the aqueous NaCl solution and “Intensity of sweetness” for the aqueous sucrose solution. The score of additive-free taste intensity was set to 3.0, and taste intensity upon addition was evaluated as follows. The results are shown in Table 9. • 1.0: Much weaker • 2.0: Weaker • 3.0: Similar • 4.0: Stronger • 5.0: Much stronger

Experiment [2] can be described thus: Sensory evaluation, intensity of saltiness in aqueous NaCl solution. The following applies: additive-free = 3.0. As to the method:
as §1, §2, §3, §4

The nature of experiment [3]: Sensory evaluation, intensity of sweetness in aqueous sucrose solution. To be noted: additive-free = 3.0. The method, then:
as §1, §2, §3, §4

Experiment [4] in a line: Sensory evaluation whether salt usage can be reduced. The following applies: 10 ppm added to 0.5% aqueous NaCl solution; for Scores in sensory evaluation (taste intensity, saltiness): 0.5% NaCl solution = 3.0, scale 1.0-5.0. As to the method: as §1
Evaluation was conducted to find whether salt usage can be reduced by the taste enhancing effects. To a 0.5% aqueous NaCl solution was added 10 ppm n-hexanal or 10 ppm 1-octen-3-ol. Taste intensity was determined in the sensory evaluation where the taste intensity of the 0.5% NaCl solution was set to 3.0. For comparison, sensory evaluation was also performed for a 0.8% and 0.6% concentration of aqueous NaCl solution. The sensory evaluation was evaluated as follows. The results are shown in Table 5. • 1.0: Much weaker • 2.0: Weaker • 3.0: Similar • 4.0: Stronger • 5.0: Much stronger

Experiment [5] can be described thus: Sensory evaluation whether sucrose usage can be reduced. To be noted: for Scores in sensory evaluation (taste intensity, sweetness): 1.5% sucrose solution = 3.0. As to the method:
as §1
Evaluation was conducted to find whether sucrose usage can be reduced by the taste enhancing effects. To a 1.5% aqueous sucrose solution was added 10 ppm n-hexanal or 10 ppm 1-octen-3-ol. Taste intensity was determined in the sensory evaluation where the taste intensity of the 1.5% sucrose solution was set to 3.0. For comparison, sensory evaluation was also performed for a 2.0% and 1.8% concentration of aqueous sucrose solution. The sensory evaluation was evaluated as follows. The results are shown in Table 6. • 1.0: Much weaker • 2.0: Weaker • 3.0: Similar • 4.0: Stronger • 5.0: Much stronger

Experiment [6] in a line: Sensory evaluation, intensity of umami in diluted soy sauce. To be noted: 10 ppm in soy sauce diluted to 2% in water; aldehyde-free = 3.0; scale 1.0-5.0. The method, then: as §1
(§5) Sensory evaluation was performed for “Intensity of Umani ” and “ Intensity of Saltiness “. The score of aldehyde-free taste intensity was set to 3.0, and taste intensity upon addition was evaluated as follows. The results are shown in Table 7. • 1.0: Much weaker • 2.0: Weaker • 3.0: Similar • 4.0: Stronger • 5.0: Much stronger

A short description of experiment [7]: Sensory evaluation, intensity of saltiness in diluted soy sauce. The following applies: 10 ppm in soy sauce diluted to 2% in water; aldehyde-free = 3.0; scale 1.0-5.0. As to the method: as §1, §5
The nature of experiment [8]: Sensory evaluation, intensity of sweetness in whipped cream. To be noted: 100 ppm in whipped cream; aldehyde-free = 3.0; scale 1.0-5.0. As to the method:
as §1
Sensory evaluation was performed for “Intensity of sweetness”. The score of aldehyde-free taste intensity was set to 3.0, and taste intensity upon addition was evaluated as follows. The results are shown in Table 8. • 1.0: Much weaker • 2.0: Weaker • 3.0: Similar • 4.0: Stronger • 5.0: Much stronger

A short description of experiment [9]: Sensory evaluation, intensity of umami in aqueous MSG solution. The following applies: additive-free = 3.0, scale 1.0-5.0.
The nature of experiment [10]: Sensory evaluation, intensity of saltiness in aqueous NaCl solution. To be noted: additive-free = 3.0, scale 1.0-5.0.
A short description of experiment [11]: Sensory evaluation, intensity of sweetness in aqueous sucrose solution. To be noted: additive-free = 3.0, scale 1.0-5.0.
[12] abbreviates: 1 ppm added to 0.2% MSG, scale 1.0-5.0.
The mark [13] stands for this setting: 10 ppm added to 0.2% MSG, 1.0 much weaker to 5.0 much stronger, mean of three individuals, nose clip.
[14] abbreviates: 1 ppm added to 0.8% NaCl, scale 1.0-5.0.
Where [15] appears, read: 10 ppm added to 0.8% NaCl, 1.0 much weaker to 5.0 much stronger.
Where [16] appears, read: 1 ppm added to 2% sucrose, scale 1.0-5.0.
The mark [17] stands for this setting: 10 ppm added to 2% sucrose, 1.0 much weaker to 5.0 much stronger.
The mark [18] stands for this setting: 10 ppm added to 1.5% aqueous sucrose solution.
Where [19] appears, read: 10 ppm added to 1.5% aqueous sucrose solution, scale 1.0-5.0.

As for `CCCCCC=O` [n-hexanal], the “Intensity of umami, Aqueous MSG solution” value was found to be 4.3 in experiment [1] (setting [12]); 5.0 in experiment [1] (setting [13]); 3.5 in experiment [9] (0.001 ppm added to 0.2% MSG); 4.0 in experiment [9] (0.01 ppm added to 0.2% MSG); 4.2 in experiment [9] (0.1 ppm added to 0.2% MSG); 5.0 in experiment [9] (100 ppm added to 0.2% MSG). Further, in [9] (1000 ppm added to 0.2% MSG), the “Intensity of umami, Aqueous MSG solution” value is given as 5.0. Besides, the “Intensity of saltiness, Aqueous NaCl solution” value is recorded as 4.3 in experiment [2] (setting [14]); 5.0 in experiment [2] (setting [15]); 3.5 in experiment [10] (0.001 ppm added to 0.8% NaCl); 4.0 in experiment [10] (0.01 ppm added to 0.8% NaCl); 4.2 in [10] (0.1 ppm added to 0.8% NaCl); 5.0 in [10] (100 ppm added to 0.8% NaCl). In experiment [10] (1000 ppm added to 0.8% NaCl), the “Intensity of saltiness, Aqueous NaCl solution” value is 5.0. Moreover, the “Intensity of sweetness, Aqueous sucrose solution” value is given as 3.8 in experiment [3] (setting [16]); 4.5 in [3] (setting [17]); 3.5 in experiment [11] (0.001 ppm added to 2% sucrose); 3.8 in experiment [11] (0.01 ppm added to 2% sucrose); 3.8 in [11] (0.1 ppm added to 2% sucrose); 4.5 in experiment [11] (100 ppm added to 2% sucrose). In experiment [11] (1000 ppm added to 2% sucrose), the “Intensity of sweetness, Aqueous sucrose solution” value was 5.0. In addition, the “Concentration of aqueous NaCl solution of similar saltiness intensity” value in experiment [4] is approximately 0.8%. Further, in experiment [4], the “Scores in sensory evaluation (taste intensity, saltiness)” value was found to be 4.0. Further, the “Concentration of aqueous sucrose solution of comparable/similar sweetness intensity” value in experiment [5] (setting [18]) is recorded as approximately 2.0%. Also, in experiment [5] (setting [19]), the “Scores in sensory evaluation (taste intensity, sweetness)” value (“Scores … (taste intensity, sweetness)” below) is recorded as 4.0. For the same compound, the Intensity of umami in [6] was 4.5. Also, the Intensity of saltiness in experiment [7] is listed as 4.5. In experiment [8], this compound registered an Intensity of sweetness of 4.5.

Turning to `OC[C@H]1O[C@@](CO)(O[C@H]2O[C@H](CO)[C@@H](O)[C@H](O)[C@H]2O)[C@@H](O)[C@@H]1O` [sucrose, reference compound], the “Scores … (taste intensity, sweetness)” value in experiment [5] (1.8% aqueous sucrose solution, nothing added, for comparison) is on record as 3.5; in experiment [5] (2.0% aqueous sucrose solution, nothing added, for comparison), 4.0.

Turning to `C=CC(O)CCCCC` (stereo not shown) [Example 1-octen-3-ol, 1-octen-3-ol], the “Intensity of umami, Aqueous MSG solution” value amounted to 3.5 in experiment [1] (setting [12]); 3.5 in experiment [1] (setting [13]); 3.2 in [9] (0.01 ppm added to 0.2% MSG); 3.2 in [9] (0.1 ppm added to 0.2% MSG); 3.8 in [9] (100 ppm added to 0.2% MSG); 3.8 in [9] (1000 ppm added to 0.2% MSG). For the same compound, the “Intensity of saltiness, Aqueous NaCl solution” value is recorded as 3.5 in [2] (setting [14]); 3.5 in experiment [2] (setting [15]); 3.2 in experiment [10] (0.01 ppm added to 0.8% NaCl); 3.5 in experiment [10] (0.1 ppm added to 0.8% NaCl); 3.8 in [10] (100 ppm added to 0.8% NaCl); 3.8 in experiment [10] (1000 ppm added to 0.8% NaCl). In addition, the “Intensity of sweetness, Aqueous sucrose solution” value in experiment [3] (setting [16]) is recorded as 3.2; in experiment [3] (setting [17]), 3.5; in experiment [11] (0.01 ppm added to 2% sucrose), 3.2; in experiment [11] (0.1 ppm added to 2% sucrose), 3.2; in [11] (100 ppm added to 2% sucrose), 3.5; in experiment [11] (1000 ppm added to 2% sucrose), 3.5. The “Concentration of aqueous NaCl solution of similar saltiness intensity” value in experiment [4] is given as approximately 0.6%. Also, in [4], the “Scores in sensory evaluation (taste intensity, saltiness)” value was found to be 3.5. Further, the “Concentration of aqueous sucrose solution of comparable/similar sweetness intensity” value in [5] (setting [18]) is approximately 1.8%. For the same compound, in experiment [5] (setting [19]), the “Scores … (taste intensity, sweetness)” value is on record as 3.5.
